Entries after “also recorded” stand apart in the source; their conditions may differ. Like-named read-outs stand apart in the source and are kept apart here.
Tests used:
[1] = test system: HCT116 human colon carcinoma cell line; experiment: In vitro cytotoxicity in HCT116 (XTT assay); format: cell-based; settings: for IC50: Homo sapiens
Description: (§1) Eleutherobin and the above described analogs are useful as cytotoxic agents. The compounds are used in the same manner as other known cytotoxic agents. They may be used alone or in combination with suitable pharmaceutical carriers and other bioactive materials. They are used both in vitro and in vivo to kill a wide variety of cell types. […] For example, in vitro toxicity of eleutherobin was tested in the HCT116 human colon carcinoma cell line and a multidrug resistant subline, HCT116/VM46, which overexpresses P-glycoprotein and is over 100-fold resistant to taxol. […] The cytotoxicity of eleutherobin was also tested in a human ovarian carcinoma cell line A2780. Eleutherobin was also found to be cytotoxic with respect to the A2780 cell line.
(§2) ^1 Cytotoxicity was determined after 72 hour exposure by XTT assay.

[2] = test system: HCT116/VM46 human colon carcinoma subline, which overexpresses P-glycoprotein; experiment: In vitro cytotoxicity in multidrug resistant subline HCT116/VM46 (XTT assay); format: cell-based; settings: for fold resistance relative to corresponding parent cell line: HCT116/VM46 relative to HCT116, 4320 min; for IC50: Homo sapiens, HCT-116/VM46, HCT116/VM46, 72 hour exposure, XTT assay
Description: as §1, §2
^2 Value in parenthesis is fold resistance relative to corresponding

[3] = test system: human ovarian carcinoma cell line A2780; experiment: In vitro cytotoxicity in A2780 (XTT assay); format: cell-based; settings: for IC50: Homo sapiens
Description: as §1, §2

[4] = test system: cancer cells; experiment: Cytotoxicity, general statement; format: cell-based; settings: in words
[5] = in words, background art; cited from earlier work

## CO[C@]12C=C[C@](C)(O1)[C@@H](OC(=O)/C=C/c1cn(C)cn1)C[C@H]1C(C)=CC[C@H](C(C)C)[C@H]1/C=C\2COC1OCC(O)C(O)C1OC(C)=O (some centres unmarked) [Eleutherobin]
[1]; HCT-116, 72 h
  IC50: 10.7 nM
[1]; in words, HCT116
  cytotoxicity in the HCT116 cell line compared with taxol: nearly as cytotoxic as taxol
[2]
  fold resistance relative to corresponding parent cell line: 52 fold
  IC50: 554 nM
[3]; A2780, 72 h
  IC50: 13.7 nM
[3]; in words, A2780
  cytotoxicity with respect to the A2780 cell line: cytotoxic
[4]
  cytotoxicity: effective cytotoxin; also recorded: cytotoxic with respect to cancer cells

## CC(C)=CC(=O)O[C@H]1C[C@H]2C(C)=CC(=O)[C@H](C(C)C)[C@H]2/C=C(/C)[C@@]2(O)C=C[C@]1(C)O2 [Valdivone A]
[5]
  anti-inflammatory activity: anti-inflammatory activity

## CC1=CC(=O)[C@H](C(C)C)[C@H]2/C=C(/C)[C@@]3(O)C=C[C@](C)(O3)[C@@H](OC(=O)Cc3ccccc3)C[C@@H]12 [Valdivone B]
[5]
  anti-inflammatory activity: anti-inflammatory activity

## CC(=O)O[C@H]1C(=O)[C@@]2(C)[C@H]([C@H](OC(=O)c3ccccc3)[C@]3(O)C[C@H](OC(=O)[C@H](O)[C@@H](NC(=O)c4ccccc4)c4ccccc4)C(C)=C1C3(C)C)[C@]1(OC(C)=O)CO[C@@H]1C[C@@H]2O [paclitaxel (taxol), paclitaxel]
[1]; HCT-116, HCT116, 72 hour exposure, XTT assay, read-out: IC50
  IC50: 4.6 nM
[2]
  fold resistance relative to corresponding parent cell line: 117 fold
  IC50: 5.37 nM
[2]; listed as taxol
  fold resistance relative to corresponding parent cell line: over 100 fold
[3]; A2780, 72 hour exposure, XTT assay, read-out: IC50
  IC50: 6.7 nM

Source: patent US5473057A, “Eleutherobin and analogs thereof” (The Regents of the University of California, priority 1994, dated 1995)
